Patent publication US11066412B2, “Substituted pyrrolo[2,1-a]phthalazines and benzo[g]pyrrolo[2,1-a]phthalazines for the treatment of cancer” (Academia Sinica, priority 2017, dated 2021)
Read-outs that look alike come from different tables or passages of the source.

Key:
[1] = test system: vinblastine-resistant sub-cell line (CCRF-CEM/VBL); assay: in vitro cytotoxicity, PrestoBlue assay; format: cell-based, human; settings: for IC50: read-out: IC50 CEM/VBL; for resistance factor (IC50 CEM/VBL vs IC50 of the parent cell line): number in brackets
Method: (§1) All representative compounds of Formulae (I-A) and (I-B) were first evaluated for their in vitro cytotoxicity to human lymphoblastic leukemia cell line (CCRF-CEM) and its vinblastine-resistant sub-cell line (CCRF-CEM/VBL) (see Table 1).
(§2) After a 72-hr incubation in various concentrations of the newly synthesized compounds, the cytotoxic effects of them to all cell lines were determined by the PrestoBlue®(Invitrogen) assay using a microplate spectrophotometer. Briefly, at the end of treatment, an aliquot of PrestoBlue® solution was added and then cells were incubated at 37° C. for 1-2 hr. The absorbance at 570 and 600 nm was measured with a microplate reader. […] The ICso is defined by the concentration required to inhibit tumor cell growth by 50%. Data represent the mean±STDEV of three to six independent experiments for each compound.

[2] = test system: non-small cell lung cancer H460; assay: in vitro cytotoxicity, PrestoBlue assay; format: cell-based, human; settings: Table 2
Method: as §1, §2

[3] = test system: pancreatic cancer PacaS1; assay: in vitro cytotoxicity, PrestoBlue assay; format: cell-based, human; settings: Table 2
Method: as §1, §2

[4] = test system: colon cancer HCT-116; assay: in vitro cytotoxicity, PrestoBlue assay; format: cell-based, human; settings: Table 2
Method: as §1, §2

[5] = test system: small cell lung cancer H526; assay: in vitro cytotoxicity, PrestoBlue assay; format: cell-based, human; settings: read-out: IC50 H526
[6] = test system: human lymphoblastic leukemia cell line (CCRF-CEM); assay: in vitro cytotoxicity, PrestoBlue assay; format: cell-based; settings: read-out: IC50 CCRF-CEM
Method: as §1, §2

[7] = test system: pEGFP-N1 plasmid DNA; assay: DNA cross-linking, alkaline agarose gel electrophoresis; format: biochemical; settings: 1-20 μM, 37° C., 2 hrs; FIG. 1
Method: In the present example, BO-2590, BO-2577 (Formula I-A) and BO-2698, BO-2755, BO-2762 and BO-2768 (Formula I-B) were tested for their DNA crosslinking activity, in which the cross-linking was analyzed by alkaline agarose gel electrophoresis. In brief, purified pEGFP-N1 plasmid DNA (1,500 ng) was mixed with various concentrations (1-20 μM) of the tested compounds in 40 μL binding buffer (3 mM sodium chloride/1 mM sodium phosphate, pH 7.4, and 1 mM EDTA). The reaction mixture was incubated at 37° C. for 2 hrs. At the end of reaction, the plasmid DNA was linearized by digestion with BamHI and followed by precipitation with ethanol. The DNA pellets were dissolved and denatured in alkaline buffer (0.5 N NaOH-10mM EDTA). An aliquot of 20 μL of DNA solution (1,000 ng) was mixed with 4 μL of 6× alkaline loading dye and then electrophoretically resolved on a 0.8% alkaline agarose gel with NaOH-EDTA buffer at 4° C. The electrophoresis was carried out at 18V for 22 h. After staining the gels with an ethidium bromide solution, the DNA was visualized under UV light. Results are illustrated in FIG. 1.

[8] = test system: H1417; assay: in vitro cytotoxicity to SCLC cells; format: cell-based, human; settings: Table 3
Method: as §2

[9] = test system: H82; assay: in vitro cytotoxicity to SCLC cells; format: cell-based, human; settings: Table 3
Method: as §2

[10] = test system: H211; assay: in vitro cytotoxicity to SCLC cells; format: cell-based, human; settings: Table 3
Method: as §2

[11] = test system: H146; assay: in vitro cytotoxicity to SCLC cells; format: cell-based, human; settings: Table 3
Method: as §2

[12] = 72-hr incubation, mean ± STDEV of three to six experiments
[13] = Homo sapiens, CCRF-CEM, footnote d: IC50 values in nM

| Structure (SMILES) | IC50 [1, 12] [nM] | resistance factor (IC50 CEM/VBL vs IC50 of the parent cell line) [1] [×] | IC50 [6, 12] [nM] | IC50 ([5]; Table 3) [nM] | IC50 [8] [nM] | IC50 [10] [nM] | IC50 [11] [nM] | other results |
| --- | --- | --- | --- | --- | --- | --- | --- | --- |
| Cc1c(CO)c(CO)c2c3ccccc3c(N3CCOCC3)nn12 [BO-2571, (3-Methyl-6-morpholinopyrrolo[2,1-α]phthalazine-1,2-diyl)dimethanol] | 560 ± 60 | 0.74 | 760 ± 30 | – | – | – | – | IC50 [2]: 2640 ± 520 nM; IC50 Paca SI [3]: 2.16 ± 0.09 µM; IC50 [4]: 1670 ± 180 nM; IC50 ([5]; Table 2): 100 ± 10 nM |
| CCNC(=O)OCc1c(COC(=O)NCC)c2c3ccccc3c(N3CCOCC3)nn2c1C [BO-2573, (3-Methyl-6-morpholinopyrrolo[2,1-a]phthalazine-1,2-diyl)bis(methylene)bis(ethylcarbamate)] | 450 ± 30 | 0.65 | 690 ± 220 | – | – | – | – | IC50 [2]: 2480 ± 730 nM; IC50 Paca SI [3]: 17.23 ± 3.48 µM; IC50 [4]: 1700 ± 210 nM; IC50 ([5]; Table 2): 210 ± 30 nM |
| Cc1c(COC(=O)NC(C)C)c(COC(=O)NC(C)C)c2c3ccccc3c(N3CCOCC3)nn12 [BO-2574] | 960 ± 160 | 0.82 | 1170 ± 180 | – | – | – | – | – |
| CCNC(=O)OCc1c(COC(=O)NCC)c2c3ccccc3c(N3CCOCC3)nn2c1CC [BO-2625] | 5110 ± 910 | 1.48 | 3440 ± 820 | – | – | – | – | – |
| CCc1c(COC(=O)NC(C)C)c(COC(=O)NC(C)C)c2c3ccccc3c(N3CCOCC3)nn12 [BO-2626] | 1580 ± 200 | 0.43 | 3680 ± 250 | – | – | – | – | – |
| COc1ccc(-c2c(CO)c(CO)c3c4ccccc4c(N4CCOCC4)nn23)cc1 [BO-2629] | 5750 ± 620 | 0.86 | 6630 ± 1740 | – | – | – | – | IC50 [2]: 18700 ± 1810 nM; IC50 Paca SI [3]: 36.63 ± 1.04 µM; IC50 [4]: 5200 ± 430 nM; IC50 ([5]; Table 2): 1950 ± 260 nM |
| CCNC(=O)OCc1c(COC(=O)NCC)c2c3ccccc3c(N3CCOCC3)nn2c1-c1ccc(OC)cc1 [BO-2630] | 7210 ± 250 | 1.18 | 6120 ± 880 | – | – | – | – | – |
| COc1ccc(-c2c(COC(=O)NC(C)C)c(COC(=O)NC(C)C)c3c4ccccc4c(N4CCOCC4)nn23)cc1 [BO-2631] | 3070 ± 430 | 1.07 | 2850 ± 1520 | – | – | – | – | – |
| Cc1c(CO)c(CO)c2c3cc4ccccc4cc3c(N3CCOCC3)nn12 [BO-2698] | 330 ± 30 | 0.86 | 380 ± 50 | 90 ± 60 | 370 ± 10 | 220 ± 70 | 1020 ± 160 | IC50 [2]: 1180 ± 100 nM; IC50 Paca SI [3]: 0.88 ± 0.26 µM; IC50 [4]: 1130 ± 20 nM; IC50 ([5]; Table 2): 40 ± 10 nM; formation of DNA interstrand crosslinks [7]: induced DNA interstrand crosslinks; IC50 [9]: 400 ± 160 nM |
| Cc1c(COC(=O)NC(C)C)c(COC(=O)NC(C)C)c2c3ccccc3c(N3CCCC3)nn12 [BO-2717] | 3160 ± 180 | 0.77 | 4110 ± 150 | – | – | – | – | – |
| Cc1c(CO)c(CO)c2c3ccccc3c(N3CCCCC3)nn12 [BO-2720] | 1330 ± 130 | 1.28 | 1040 ± 120 | – | – | – | – | – |
| CCNC(=O)OCc1c(COC(=O)NCC)c2c3ccccc3c(N3CCCCC3)nn2c1C [BO-2721] | 1230 ± 200 | 0.96 | 1280 ± 90 | – | – | – | – | – |
| Cc1c(COC(=O)NC(C)C)c(COC(=O)NC(C)C)c2c3ccccc3c(N3CCCCC3)nn12 [BO-2722] | 1730 ± 90 | 0.90 | 1920 ± 110 | – | – | – | – | – |
| Cc1c(CO)c(CO)c2c3cc4ccccc4cc3c(N3CCCCC3)nn12 [BO-2755] | 1010 ± 110 | 1.26 | 800 ± 90 | 220 ± 60 | 1370 ± 30 | 800 ± 330 | 2650 ± 1390 | IC50 [2]: 3030 ± 480 nM; IC50 Paca SI [3]: 10.01 ± 1.64 µM; IC50 [4]: 4130 ± 270 nM; IC50 ([5]; Table 2): 120 ± 40 nM; formation of DNA interstrand crosslinks [7]: induced DNA interstrand crosslinks; IC50 [9]: 1480 ± 660 nM |
| CCNC(=O)OCc1c(COC(=O)NCC)c2c3cc4ccccc4cc3c(N3CCOCC3)nn2c1C [BO-2756] | 320 ± 40 | 1.03 | 310 ± 20 | 150 ± 87 | 810 ± 20 | 130 ± 100 | 1510 ± 830 | IC50 [9]: 740 ± 390 nM |
| CCNC(=O)OCc1c(COC(=O)NCC)c2c3cc4ccccc4cc3c(N3CCCCC3)nn2c1C [BO-2757] | 1200 ± 140 | 1.26 | 950 ± 50 | 540 ± 180 | 3940 ± 110 | 1030 ± 250 | 4190 ± 700 | IC50 [9]: 1580 ± 10 nM |
| CCNC(=O)OCc1c(COC(=O)NCC)c2c3cc4ccccc4cc3c(N3CCCC3)nn2c1C [BO-2763, (3-Methyl-6-(pyrrolidin-1-yl)benzo[g]pyrrolo[2,1-α]phthalazine-1,2-diyl)-bis(methylene) bis(ethylcarbamate)] | 250 ± 60 | 0.59 | 420 ± 70 | 180 ± 60 | 1150 ± 150 | 680 ± 590 | 2160 ± 500 | IC50 [9]: 1580 ± 1370 nM |
| CCNC(=O)OCc1c(COC(=O)NCC)c2c3cc4ccccc4cc3c(N(C)C)nn2c1C [BO-2772, (6-(Dimethylamino)-3-methylbenzo[g]pyrrolo[2,1-α]phthalazine-1,2-diyl)-bis(methylene) bis(ethylcarbamate)] | 99 ± 6 | 0.71 | 138 ± 8 | 270 ± 310 | 1010 ± 490 | 320 ± 200 | 1670 ± 240 | IC50 [9]: 520 ± 160 nM |
| Cc1c(CO)c(CO)c2c3ccccc3c(N(C)C)nn12 [BO-2785] | 2940 ± 260 | 0.88 | 3330 ± 390 | – | – | – | – | – |
| CCNC(=O)OCc1c(COC(=O)NCC)c2c3ccccc3c(N(C)C)nn2c1C [BO-2786] | 550 ± 60 | 0.75 | 730 ± 50 | – | – | – | – | IC50 [2]: 3470 ± 470 nM; IC50 Paca SI [3]: 8.01 ± 1.40 µM; IC50 [4]: 2450 ± 650 nM; IC50 ([5]; Table 2): 570 ± 90 nM |
| Cc1c(COC(=O)NC(C)C)c(COC(=O)NC(C)C)c2c3ccccc3c(N(C)C)nn12 [BO-2787] | 970 ± 170 | 0.63 | 1540 ± 220 | – | – | – | – | – |
| CCNC(=O)OCc1c(COC(=O)NCC)c2c3cc4ccccc4cc3c(N3CCC(N4CCCCC4)CC3)nn2c1C [BO-2793] | 104 ± 28 | 1.82 | 57 ± 4 | 10 ± 3 | 130 ± 90 | 60 ± 20 | 310 ± 210 | IC50 [9]: 90 ± 40 nM |
| N.N.O=C([O-])C1(C(=O)[O-])CCC1.[Pt+2] [Carboplatin, reference compound] | – | – | – | 6430 ± 140 | 8640 ± 1930 | 13900 ± 1560 | 37100 ± 6380 | – |
| COc1cc([C@@H]2c3cc4c(cc3[C@@H](O[C@@H]3O[C@@H]5CO[C@@H](C)O[C@H]5[C@H](O)[C@H]3O)[C@H]3COC(=O)[C@H]23)OCO4)cc(OC)c1O [Etoposide, reference compound] | – | – | – | – | – | – | – | IC50 ([5]; Homo sapiens, NCI-H526, Table 3): 200 ± 260 nM; IC50 ([8]; Homo sapiens, NCI-H1417): 4530 ± 3180 nM; IC50 ([9]; Homo sapiens, NCI-H82): 1080 ± 420 nM; IC50 ([10]; Homo sapiens, NCI-H211): 70 ± 10 nM; IC50 ([11]; Homo sapiens, NCI-H146): 2910 ± 170 nM |
| CC[C@]1(O)C[C@@H]2CN(CCc3c([nH]c4ccccc34)[C@@](C(=O)OC)(c3cc4c(cc3OC)N(C)[C@H]3[C@@](O)(C(=O)OC)[C@H](OC(C)=O)[C@]5(CC)C=CCN6CC[C@]43[C@@H]65)C2)C1 [Vinblastine, reference compound] | – | 278.3 | – | – | – | – | – | IC50 [1, 13]: 392 ± 44.8 nM; IC50 [6, 13]: 1.41 ± 0.1 nM |
